Data on 22 compounds can be found in patent US7312227B2, “Compositions useful as inhibitors of JAK and other protein kinases” (Vertex Pharmaceuticals Incorporated, priority 2002, dated 2007).

Some results are limits rather than exact numbers.

Common to all, as to assay type: biochemical
Experiment [1] has as its target T1, JAK3 (Homo sapiens, UniProt P52333).
T1 sequence (P52333 1-1124): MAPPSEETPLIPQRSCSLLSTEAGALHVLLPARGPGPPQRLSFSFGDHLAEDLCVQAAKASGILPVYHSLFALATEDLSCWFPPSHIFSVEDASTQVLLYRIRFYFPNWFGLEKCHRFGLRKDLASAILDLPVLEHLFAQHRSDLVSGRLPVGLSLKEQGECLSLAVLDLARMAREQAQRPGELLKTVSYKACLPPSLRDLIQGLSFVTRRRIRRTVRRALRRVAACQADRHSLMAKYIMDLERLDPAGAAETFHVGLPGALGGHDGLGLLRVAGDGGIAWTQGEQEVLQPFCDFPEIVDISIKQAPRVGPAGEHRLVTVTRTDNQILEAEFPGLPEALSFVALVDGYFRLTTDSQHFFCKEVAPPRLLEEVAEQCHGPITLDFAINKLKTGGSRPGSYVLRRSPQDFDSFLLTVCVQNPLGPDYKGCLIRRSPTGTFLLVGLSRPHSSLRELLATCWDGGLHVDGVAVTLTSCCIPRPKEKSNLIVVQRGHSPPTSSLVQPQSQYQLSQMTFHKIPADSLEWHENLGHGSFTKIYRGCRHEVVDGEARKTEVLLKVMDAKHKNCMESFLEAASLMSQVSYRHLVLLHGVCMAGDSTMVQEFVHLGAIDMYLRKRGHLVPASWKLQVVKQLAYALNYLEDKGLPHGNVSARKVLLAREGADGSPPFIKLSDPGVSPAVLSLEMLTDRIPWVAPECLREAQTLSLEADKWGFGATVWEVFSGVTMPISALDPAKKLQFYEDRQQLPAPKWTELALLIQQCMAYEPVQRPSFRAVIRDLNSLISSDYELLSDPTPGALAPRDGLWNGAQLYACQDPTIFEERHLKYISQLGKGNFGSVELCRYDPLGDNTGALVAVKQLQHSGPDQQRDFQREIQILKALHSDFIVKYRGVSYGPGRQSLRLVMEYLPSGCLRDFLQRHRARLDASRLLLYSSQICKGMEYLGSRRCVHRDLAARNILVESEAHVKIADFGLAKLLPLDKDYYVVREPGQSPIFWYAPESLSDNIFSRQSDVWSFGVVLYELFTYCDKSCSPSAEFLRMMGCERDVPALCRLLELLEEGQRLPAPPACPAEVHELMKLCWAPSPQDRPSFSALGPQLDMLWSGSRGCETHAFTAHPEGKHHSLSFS
The experiment can be described thus: JAK3 inhibition assay. To be noted: 2 μM ATP, Poly (Glu, Ala, Tyr) 6:3:1 coated plates, 60 minutes at 30° C. Here is the method:
Compound inhibition of JAK was assayed by the method described by G. R. Brown, et al, Bioorg. Med. Chem. Lett. 2000, vol. 10, pp 575-579 in the following manner. Into Maxisorb plates, previously coated at 4° C. with Poly (Glu, Ala, Tyr) 6:3:1 then washed with phosphate buffered saline 0.05% and Tween (PBST), was added 2 μM ATP, 5 mM MgCl2, and a solution of compound in DMSO. The reaction was started with JAK enzyme and the plates incubated for 60 minutes at 30° C. The plates were then washed with PBST, 100 μL HRP-Conjugated 4G10 antibody was added, and the plate incubated for 90 minutes at 30° C. The plate was again washed with PBST, 100 μL TMB solution is added, and the plates were incubated for another 30 minutes at 30° C. Sulfuric acid (100 μL of 1M) was added to stop the reaction and the plate is read at 450 nm, and Ki values were determined.

Experiment [2] deals with CDK-2/Cyclin A (Homo sapiens, UniProt P24941). Kind of experiment: CDK2 inhibition assay (coupled enzyme assay). To be noted: 100 μM ATP, 100 μM peptide, 25 nM CDK-2/Cyclin A, 30° C. Here is the method: Compounds were screened for their ability to inhibit CDK-2/Cyclin A using a standard coupled enzyme assay (Fox et al (1998) Protein Sci 7, 2249). Reactions were carried out in 100 mM HEPES pH 7.5, 10 mM MgCl2, 25 mM NaCl, 1 mM DTT and 1.5% DMSO. Final substrate concentrations in the assay were 100 μM ATP (Sigma chemicals) and 100 μM peptide (American Peptide, Sunnyvale, Calif.). Assays were carried out at 30° C. and 25 nM CDK-2/Cyclin A. Final concentrations of the components of the coupled enzyme system were 2.5 mM phosphoenolpyruvate, 350 μM NADH, 30 μg/ml pyruvate kinase and 10 μg/ml lactate dehydrogenase.
An assay stock buffer solution was prepared containing all of the reagents listed above, with the exception of CDK-2/Cyclin A, DTT and the test compound of interest. 56 μl of the test reaction was placed in a 384 well plate followed by addition of 1 μl of 2 mM DMSO stock containing the test compound (final compound concentration 30 μM). The plate was preincubated for ˜10 minutes at 30° C. and the reaction initiated by addition of 10 μl of enzyme (final concentration 25 nM). Rates of reaction were obtained using a BioRad Ultramark plate reader (Hercules, Calif.) over a 5 minute read time at 30° C. and Ki values were determined.

Experiment [3] deals with JNK3 (Homo sapiens, UniProt P53779). Kind of experiment: JNK3 inhibition assay (spectrophotometric coupled-enzyme assay). To be noted: 10 nM activated JNK3, 10 μM ATP, 200 μM EGF receptor peptide, 30° C. As to the method:
Compounds were assayed for the inhibition of JNK3 by a spectrophotometric coupled-enzyme assay. In this assay, a fixed concentration of activated JNK3 (10 nM) was incubated with various concentrations of a potential inhibitor dissolved in DMSO for 10 minutes at 30° C. in a buffer containing 0.1 M HEPES buffer, pH 7.5, containing 10 mM MgCl2, 2.5 mM phosphoenolpyruvate, 200 μM NADH, 150 μg/mL pyruvate kinase, 50 μg/mL lactate dehydrogenase, and 200 μM EGF receptor peptide. The EGF receptor is a phosphoryl acceptor in the JNK3-catalyzed kinase reaction. The reaction was initiated by the addition of 10 μM ATP and the assay plate is inserted into the spectrophotometer's assay plate compartment that was maintained at 30° C. The decrease of absorbance at 340 nm was monitored as a function of time. The rate data as a function of inhibitor concentration was fitted to competitive inhibition kinetic model to determine the Ki.

JNK3, sequence (P53779 whole entry): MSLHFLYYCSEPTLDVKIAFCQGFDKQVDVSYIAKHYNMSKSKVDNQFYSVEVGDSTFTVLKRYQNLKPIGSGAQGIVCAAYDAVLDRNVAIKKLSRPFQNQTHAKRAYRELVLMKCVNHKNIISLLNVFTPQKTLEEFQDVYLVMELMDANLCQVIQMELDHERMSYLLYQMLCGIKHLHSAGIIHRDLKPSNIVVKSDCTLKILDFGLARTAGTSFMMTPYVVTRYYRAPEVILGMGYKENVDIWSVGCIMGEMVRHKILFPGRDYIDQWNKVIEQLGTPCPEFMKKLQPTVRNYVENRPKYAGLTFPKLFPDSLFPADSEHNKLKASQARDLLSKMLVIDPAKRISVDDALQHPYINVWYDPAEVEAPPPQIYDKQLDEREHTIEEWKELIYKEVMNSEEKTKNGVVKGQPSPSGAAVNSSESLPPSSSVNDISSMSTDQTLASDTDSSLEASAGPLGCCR

`O=C(NCC1CCCO1)c1cccc(-c2ccnc(Nc3ccccc3)n2)c1` (centres unmarked) [IV-C(i)-15]: in experiment [1], the Ki (commonly a dissociation constant, usually derived from enzyme kinetics or from competition with a known ligand) is not above 1000 nM.
Still for that read-out and setting: the same measure for `O=C(Nc1ccc(-c2ccnc(Nc3cccc(O)c3)n2)cc1)c1cccs1` [IV-B(i)-10]: not above 1000 nM.
`Nc1cccc(Nc2nccc(-c3ccc(NC(=O)c4cccs4)cc3)n2)c1` [IV-B(i)-2]: the Ki in experiment [1], in experiment [2] and in experiment [3] was not above 1000 nM throughout.
`Nc1cccc(Nc2nccc(-c3ccc(NC(=O)CN4CCCC4CO)cc3)n2)c1` (centres unmarked) [IV-B(i)-9]: in experiment [1], the Ki was not above 1000 nM.
On to `Cc1ccc(-c2ccnc(Nc3ccccc3)n2)cc1C(=O)NC1CCCCC1` [IV-C(i)-3], for which the Ki in experiment [2] is not above 1000 nM.
The same measure, in the same setting: the same measure for `O=C(NC1CCCCC1)c1ccc(-c2ccnc(Nc3ccccc3)n2)cc1` [IV-D(i)-4]: not above 1000 nM.
In the case of `O=C(Nc1cccc(-c2ccnc(Nc3cccc(O)c3)n2)c1)c1ccco1` [IV-A(i)-4], in experiment [1], the Ki was not above 1000 nM.
In experiment [1], `O=C(NCc1ccccc1)c1ccc(-c2ccnc(Nc3ccccc3)n2)cc1` [IV-D(i)-2] yielded an inhibition constant (Ki) not above 1000 nM.
The same measure, in the same setting: the same measure for `Nc1cccc(Nc2nccc(-c3ccc(NC(=O)COc4ccccc4)cc3)n2)c1` [IV-B(i)-3]: not above 1000 nM; for `Nc1cccc(Nc2nccc(-c3cccc(NC(=O)c4ccccn4)c3)n2)c1` [IV-A(i)-5]: not above 1000 nM; for `Nc1cccc(Nc2nccc(-c3ccc(NC(=O)CN4CCCC(CO)C4)cc3)n2)c1` (centres unmarked) [IV-B(i)-6]: not above 1000 nM.
`Cc1ccc(-c2ccnc(Nc3ccccc3)n2)cc1C(=O)NCc1ccccc1` [IV-C(i)-4] had a Ki in experiment [2] not above 1000 nM.
As to `Nc1cccc(Nc2nccc(-c3ccc(NC(=O)CN4CCC(CO)CC4)cc3)n2)c1` [IV-B(i)-7], the Ki in experiment [1] was not above 1000 nM.
On the same count and under the same terms, the same measure for `Nc1cccc(Nc2nccc(-c3ccc(NC(=O)CN4CCC(O)CC4)cc3)n2)c1` [IV-B(i)-8]: not above 1000 nM.
In experiment [2], `Cc1ccc(-c2ccnc(Nc3ccccc3)n2)cc1C(=O)Nc1ccccc1` [IV-C(i)-2] registered a Ki not above 1000 nM.
Regarding `O=C(COc1ccccc1)Nc1ccc(-c2ccnc(Nc3cccc(O)c3)n2)cc1` [IV-B(i)-11], the inhibitory constant (Ki) in experiment [1], in experiment [2] and in experiment [3] was not above 1000 nM throughout.
Consider `Nc1cccc(Nc2nccc(-c3cccc(NC(=O)c4cccs4)c3)n2)c1` [IV-A(i)-6], for which the inhibition constant (Ki) in experiment [1] was not above 1000 nM.
The same measure, in the same setting: the same measure for `NS(=O)(=O)c1cccc(Nc2nccc(-c3cccc(NC(=O)c4ccco4)c3)n2)c1` [IV-A(i)-1]: not above 1000 nM; for `Nc1cccc(Nc2nccc(-c3ccc(NC(=O)c4ccco4)cc3)n2)c1` [IV-B(i)-4]: not above 1000 nM.
Still for that read-out and setting: the same measure for `Nc1cccc(Nc2nccc(-c3ccc(NC(=O)CN4CCOCC4)cc3)n2)c1` [IV-B(i)-5]: not above 1000 nM; for `NS(=O)(=O)c1cccc(Nc2nccc(-c3ccc(NC(=O)COc4ccccc4)cc3)n2)c1` [IV-B(i)-1]: not above 1000 nM.
Same read-out and setting: the same measure for `COc1cccc(Nc2nccc(-c3cccc(N(C)C(=O)c4ccco4)c3)n2)c1` [IV-A(i)-2]: not above 1000 nM.
